Test results as given in ChEMBL document CHEMBL2169777, “Chemical modulators working at pharmacological interface of target proteins” (Bioorg Med Chem, 2012).

How the values were obtained:
Beta-nerve growth factor = Beta-nerve growth factor (Homo sapiens, UniProt P01138); experiment: Inhibition of NGF binding to p75NTR
[1] = Inhibition of IL2 receptor binding to IL2 alpha receptor by scintillation proximity assay

Beta-nerve growth factor, sequence (P01138 122-241 limits assumed): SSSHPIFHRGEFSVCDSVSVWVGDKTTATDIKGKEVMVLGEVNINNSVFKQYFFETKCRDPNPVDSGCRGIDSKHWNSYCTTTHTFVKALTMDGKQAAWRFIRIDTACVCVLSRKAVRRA

## Cc1cc2nc3c(=O)[nH]c(=O)nc-3n(C)c2cc1C=O
Beta-nerve growth factor
  IC50: 1 µM

## COC(=O)[C@H](Cc1ccc(C#Cc2ccccc2)cc1)NC(=O)C[C@H]1CCCN(C(=N)N)C1
[1]
  IC50: 3 µM

## CC(C)C[C@@H](NC(=N)N)C(=O)NCC(=O)N1CCC(c2cc(-c3ccc(OCc4ccc(C(=O)O)o4)c(Cl)c3Cl)nn2C)CC1
[1]
  Ki: 0.06 µM
